In PMC10900488, “Synthesis and Evaluation of (Bis)benzyltetrahydroisoquinoline Alkaloids as Antiparasitic Agents” (JACS Au, 2024):

Assays:
[1] = Mammalian toxicity, MTT colorimetric; format: cell-based, murine; details: mouse
Method: Table 1 depicts the antileishmanial (L. infantum) activity evaluation performed against both the amastigote form (evaluated microscopically using an ex vivo intracellular model of mice macrophages) and the promastigote one (using an MTT colorimetric method).[32],[33] The cytotoxicity was evaluated against NCTC cells using an MTT colorimetric method and the selectivity index was determined using the ratio between the CC50 values (NCTC cells) and the IC50 values (amastigotes).[32] […] With respect to the substituents on the C ring, larger, hydrophobic groups conferred greater bioactivity (e.g., 9b–d), whereas small, hydrophilic groups such as a hydroxyl group afford modest to poor bioactivity. […]
Murine conjunctive fibroblasts NCTC clone 929 (ATCC) were maintained in 10% foetal calf serum supplemented RPMI-1640 medium (pH 7.2) at 37 °C in a humidified incubator with 5% CO2. […]
Biological activity assays […]
NCTC cells (6 × 10^4/well) were added to a 96-well plate. Treatments of the cells with selected compounds (serially diluted 1.5 to 200 μM) was performed in a humidified incubator for 96 h at 37 °C and with 5% CO2.
The MTT colorimetric method was used to determine the 50% cytotoxic concentration (CC50) and the selectivity index (CC50 against NCTC cells/IC50 against amastigotes).15 […]
[…] At 6 h and 24 h post-treatment, a 1 mL aliquot was taken for imaging. The cell cycle experiment was preformed twice independently.
Generation of mNG::RAD51 tagged cell line
The single-stranded DNA-binding protein RAD51, associated with DNA Repair, LmxM.28.0550 was tagged with endogenous fluorescent protein mNeonGreen (mNG) at the N-terminus. […]
Primers for constructs and sgRNA were designed using LeishGEdit (http://www.leishGEdit.net).
PCR was at 94 °C for 5 min, followed by 35 cycles at 94 °C (15 sec), 65 °C (15 sec), 72 °C (2 min) then finally 72 °C (1 min).
PCR was at 94 °C for 30 sec, followed by 30 cycles at 94 °C (30 sec), 60 °C (30 sec), 72 °C (30 sec) then finally 72 °C (2 min). […] Combined PCR products were precipitated for 20 min with 10 μL 3M sodium acetate and 300 μL EtOH, pelleted at 14000 min-1 30 min, washed once with 70% EtOH, re-pelleted and resuspended in […]
Promastigotes (1 × 10^7 cells) were combined with PCR products and transfected using the Amaxa Nucleofector II.17 Electroporation was performed using 2 mm cuvettes on the X-100 program, followed by immediate suspension in pre-warmed M199 medium. Successful transfectants were selected with 20 μg mL-1 Puromycin 15 h after transfection, taking 4 days to reach stable growth in culture. mNG::RAD51 nuclear foci studies mNG::RAD51 promastigotes (5 × 10^6 cells mL-1) in 7 mL of M199 medium were treated with 7 μL o f compound (S)-9a or (S)-9b dissolved in DMSO giving a final concentration of 50 μM. Phleomycin was used as a positive control at a final concentration of 25 μg mL-1. At T = 0, 15, 30, 60 min, and 2, 6, 24 h post-treatment a 0.8 mL aliquot was taken for imaging.

[2] = test system: L. mexicana promastigotes; experiment: Light microscopy of cell morphology; format: cell-based, Leishmania (L.) mexicana
Method: Preliminary investigations into the mechanism of action for compounds (S)-9a, (S)-9b and (S,R)-11 were carried out using L. mexicana promastigotes. Light microscopy-based techniques were employed to further explore compound activity in a different, related Leishmania species. […] A solvent-only control using 0.1% (v/v) DMSO led to no significant effects. Cell cultures were examined by light microscopy to identify any morphological changes resulting from compound treatment (Figure 2B). […] Cells treated with the BI and BBI compounds develop a changed morphology with a spherical cell body or shortened flagellum. This effect is observed in 25% of the population for compound (S)-9a, to a greater extent (66%) for (S)-9b, and 27% for compound (S,R)-11. An abnormal number and position of Ks and Ns were often observed, with Ks and Ns sometimes less well-defined by Hoechst 33342 staining. […]
If the radar plot falls completely within the pink area, the compounds is predicted to have good oral […]
Figure S1. Bioavailability radars for hit compounds as generated by the SwissADME Webtool.
General Experimental Considerations
MTT was obtained from Molecular Probes® (Invitrogen™). Foetal calf serum (FCS, 10500064), M199 medium (M199 containing Earle’s salts and L-glutamine, 31100019), were purchased from Gibco. Hemin (H9039) was obtained from Sigma Aldrich. The FilterMax F5 Multi-Mode Microplate Reader spectrofluorimeter (Molecular Devices) was used to obtain all absorbance readings.
Microscopy was performed with a widefield fluorescence microscope (Axio Observer A1, Zeiss) using a 63× NA 1.4 Plan-Apochromat oil immersion objective lens and a 120V metal halide fluorescence light source (Zeiss, HXP 120V) with a Hamamatsu ORCA-Flash4.0 camera. Standard fluorescence microscopy was performed with a Green (ThorLabs, MDF-GFP2) and/or Blue (Zeiss, 49) filter cube. […]

| SMILES | CC50 at 96 h [1] | Abnormal morphology (spherical cell body or shortened flagellum), share of population ([2]; 50 μM) | Abnormal morphology (spherical cell body or shortened flagellum), share of population ([2]; 5 μM) |
| --- | --- | --- | --- |
| COc1cc2c(cc1OC)[C@H](Cc1ccc(OC)c(OCc3ccccc3)c1)N(C)CC2 [(S)-9b] | 47.1 ± 11.2 µM | 66% | – |
| COc1cc2c(cc1OC)[C@@H](Cc1ccc(Oc3cc(C[C@H]4c5cc(OC)c(OC)cc5CCN4C)ccc3OC)cc1)N(C)CC2 [(S,R)-11, (−)-O,O′-dimethylgrisabine] | 10.2 ± 1.4 µM | – | 27% |
| COc1cc2c(cc1OC)[C@H](Cc1ccc(Br)cc1)N(C)CC2 [(S)-9a] | 42.5 ± 1.5 µM | 25% | – |
